In patent publication US10544147B2, “Purine inhibitors of human phosphatidylinositol 3-kinase delta” (MERCK SHARP & DOHME CORP., priority 2016, dated 2020):

Key:
PI3Kdelta = PI3Kdelta (Homo sapiens (Human), UniProt O00329); assay: HTRF PI3K biochemical assay, delta isoform; settings: 0.3 nM enzyme, 100 uM ATP, 50 uM PIP2; form screened (neutral or TFA salt)
PI3Kalpha = PI3Kalpha (Homo sapiens (Human), UniProt P42336); assay: HTRF PI3K biochemical assay, alpha isoform (selectivity versus delta); settings: ratio PI3K-alpha IC50 value/PI3K-delta IC50 value
Sequence of PI3Kalpha (P42336 whole entry, canonical isoform): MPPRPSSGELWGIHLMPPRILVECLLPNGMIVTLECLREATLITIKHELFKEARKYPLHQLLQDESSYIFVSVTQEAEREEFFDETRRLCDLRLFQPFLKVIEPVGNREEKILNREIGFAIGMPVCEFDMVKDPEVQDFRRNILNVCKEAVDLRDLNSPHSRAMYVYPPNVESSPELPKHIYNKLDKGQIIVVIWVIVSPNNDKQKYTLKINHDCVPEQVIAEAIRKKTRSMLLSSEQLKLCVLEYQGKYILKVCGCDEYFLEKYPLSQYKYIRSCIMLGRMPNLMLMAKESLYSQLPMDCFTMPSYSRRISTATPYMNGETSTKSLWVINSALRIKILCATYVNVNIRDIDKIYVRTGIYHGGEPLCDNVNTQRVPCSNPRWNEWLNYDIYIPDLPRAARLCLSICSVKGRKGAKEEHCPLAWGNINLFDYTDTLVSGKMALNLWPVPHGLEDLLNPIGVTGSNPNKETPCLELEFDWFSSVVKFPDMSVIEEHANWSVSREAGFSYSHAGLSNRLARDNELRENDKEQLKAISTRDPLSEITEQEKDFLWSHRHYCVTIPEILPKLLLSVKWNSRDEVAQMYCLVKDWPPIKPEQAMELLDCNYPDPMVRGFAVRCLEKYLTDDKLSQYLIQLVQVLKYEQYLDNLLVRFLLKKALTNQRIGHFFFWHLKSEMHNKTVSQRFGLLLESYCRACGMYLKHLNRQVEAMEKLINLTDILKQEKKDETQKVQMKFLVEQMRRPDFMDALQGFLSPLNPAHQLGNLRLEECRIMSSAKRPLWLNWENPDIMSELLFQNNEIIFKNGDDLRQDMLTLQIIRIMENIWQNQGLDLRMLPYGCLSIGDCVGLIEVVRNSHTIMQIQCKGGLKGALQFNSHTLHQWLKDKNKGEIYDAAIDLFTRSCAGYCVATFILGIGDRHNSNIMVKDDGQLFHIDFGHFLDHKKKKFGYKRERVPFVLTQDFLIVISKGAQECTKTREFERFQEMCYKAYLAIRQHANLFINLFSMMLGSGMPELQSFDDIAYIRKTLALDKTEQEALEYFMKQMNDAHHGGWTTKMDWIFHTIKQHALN
Sequence of PI3Kalpha (P27986 whole entry partner, canonical isoform): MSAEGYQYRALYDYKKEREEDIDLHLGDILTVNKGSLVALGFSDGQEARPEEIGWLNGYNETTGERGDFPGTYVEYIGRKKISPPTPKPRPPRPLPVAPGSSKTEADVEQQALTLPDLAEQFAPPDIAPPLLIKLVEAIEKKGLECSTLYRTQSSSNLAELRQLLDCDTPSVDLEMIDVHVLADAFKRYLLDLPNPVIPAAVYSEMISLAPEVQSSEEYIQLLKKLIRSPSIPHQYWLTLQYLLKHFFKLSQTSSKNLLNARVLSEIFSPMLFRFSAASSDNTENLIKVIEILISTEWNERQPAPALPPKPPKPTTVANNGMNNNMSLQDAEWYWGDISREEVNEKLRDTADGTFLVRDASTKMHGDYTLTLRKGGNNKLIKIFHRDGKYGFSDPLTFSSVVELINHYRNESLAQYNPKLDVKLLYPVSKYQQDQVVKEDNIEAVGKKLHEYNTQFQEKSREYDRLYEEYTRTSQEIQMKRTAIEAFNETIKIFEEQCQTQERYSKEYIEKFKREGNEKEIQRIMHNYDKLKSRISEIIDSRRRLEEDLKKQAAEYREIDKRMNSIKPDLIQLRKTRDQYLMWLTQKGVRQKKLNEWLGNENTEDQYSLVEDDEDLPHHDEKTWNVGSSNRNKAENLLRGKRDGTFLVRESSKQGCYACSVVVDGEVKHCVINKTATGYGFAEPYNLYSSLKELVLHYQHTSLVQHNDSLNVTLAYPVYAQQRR

Sequence of PI3Kdelta (O00329 whole entry, canonical isoform): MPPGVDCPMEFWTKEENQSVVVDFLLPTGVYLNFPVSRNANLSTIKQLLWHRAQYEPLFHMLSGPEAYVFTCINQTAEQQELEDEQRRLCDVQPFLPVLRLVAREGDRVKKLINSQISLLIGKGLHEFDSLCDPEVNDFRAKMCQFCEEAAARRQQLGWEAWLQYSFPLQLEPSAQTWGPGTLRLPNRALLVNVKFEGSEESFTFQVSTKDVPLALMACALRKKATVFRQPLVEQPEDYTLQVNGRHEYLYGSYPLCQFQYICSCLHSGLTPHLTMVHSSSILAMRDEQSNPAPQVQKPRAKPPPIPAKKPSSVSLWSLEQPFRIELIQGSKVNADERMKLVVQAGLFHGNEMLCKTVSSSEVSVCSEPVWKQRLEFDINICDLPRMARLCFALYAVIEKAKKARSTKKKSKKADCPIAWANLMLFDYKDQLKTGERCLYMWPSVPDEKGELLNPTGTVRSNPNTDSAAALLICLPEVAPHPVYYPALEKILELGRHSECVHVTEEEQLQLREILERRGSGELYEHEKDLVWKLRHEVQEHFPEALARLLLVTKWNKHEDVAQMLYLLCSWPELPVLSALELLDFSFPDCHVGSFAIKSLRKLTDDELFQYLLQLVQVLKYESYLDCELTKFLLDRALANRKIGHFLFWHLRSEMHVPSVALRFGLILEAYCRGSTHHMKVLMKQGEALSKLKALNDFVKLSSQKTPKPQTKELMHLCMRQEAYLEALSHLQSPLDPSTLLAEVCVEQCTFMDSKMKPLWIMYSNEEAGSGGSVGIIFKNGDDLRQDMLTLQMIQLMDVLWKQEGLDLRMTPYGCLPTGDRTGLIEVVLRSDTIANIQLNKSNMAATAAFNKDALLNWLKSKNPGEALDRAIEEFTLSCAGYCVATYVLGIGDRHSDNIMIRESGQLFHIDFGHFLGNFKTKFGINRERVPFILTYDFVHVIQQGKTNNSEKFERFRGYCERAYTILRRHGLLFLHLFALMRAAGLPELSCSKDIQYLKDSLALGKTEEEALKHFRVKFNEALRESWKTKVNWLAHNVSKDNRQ
Sequence of PI3Kdelta (P27986 whole entry partner, canonical isoform): as the sequence (P27986 whole entry partner, canonical isoform) above

IC50 (PI3Kdelta)	Relative Selectivity versus PI3Kalpha (PI3Kalpha)	Structure (SMILES)
7 nM	>10	CCn1c(-c2cnc(C)nc2)nc2c(-c3ccc4c(c3)C(C)(N3CC(C)(O)C3)C(=O)N4)ncnc21 (single isomer, unassigned) [Compound 2-80, (R or S)-5-(9-ethyl-8-(2-methylpyrimidin-5-yl)-9H-purin-6-yl)-3-(3-hydroxy-3-methylazetidin-1-yl)-3-methylindolin-2-one]
26 nM	>10	CCn1c(-c2cnc(C)nc2)nc2c(-c3ccc4c(c3)C(C)(N3CC(C)(O)C3)C(=O)N4)ncnc21 (single isomer, unassigned) [Compound 2-81, (R or S)-5-(9-ethyl-8-(2-methylpyrimidin-5-yl)-9H-purin-6-yl)-3-(3-hydroxy-3-methylazetidin-1-yl)-3-methylindolin-2-one]
1570 nM	8	CCn1c(-c2cnc(C)nc2)nc2c(-c3ccc4c(c3)C(C)(N[C@H]3C[C@H](OC)C3)C(=O)N4)ncnc21 (single isomer, unassigned) [Compound 2-82, 5-(9-ethyl-8-(2-methylpyrimidin-5-yl)-9H-purin-6-yl)-3-(((1R,3R)-3-methoxycyclobutyl)amino)-3(R or S)-methylindolin-2-one]
21 nM	>10	CCn1c(-c2cnc(C)nc2)nc2c(-c3ccc4c(c3)C(C)(N[C@H]3C[C@H](OC)C3)C(=O)N4)ncnc21 (single isomer, unassigned) [Compound 2-83, 5-(9-ethyl-8-(2-methylpyrimidin-5-yl)-9H-purin-6-yl)-3-(((1R,3R)-3-methoxycyclobutyl)amino)-3(R or S)-methylindolin-2-one]
63 nM	>10	CCn1c(-c2cnc(C)nc2)nc2c(-c3ccc4c(c3)C3(CCN(C(=O)C5CC5)C3)C(=O)N4)ncnc21 (single isomer, unassigned) [Compound 3-5, (R or S)-1′-(cyclopropanecarbonyl)-5-(9-ethyl-8-(2-methylpyrimidin-5-yl)-9H-purin-6-yl)spiro[indoline-3,3′-pyrrolidin]-2-one]
26 nM	>10	CCn1c(-c2cnc(C)nc2)nc2c(-c3ccc4c(c3)C3(CCN(C(=O)C5CC5)C3)C(=O)N4)ncnc21 (single isomer, unassigned) [Compound 3-6, (R or S)-1′-(cyclopropanecarbonyl)-5-(9-ethyl-8-(2-methylpyrimidin-5-yl)-9H-purin-6-yl)spiro[indoline-3,3′-pyrrolidin]-2-one]
5 nM	>10	CCN1C(=O)C2(CCCN2C(=O)C2CC2)c2cc(-c3ncnc4c3nc(-c3cnc(C)nc3)n4CC)ccc21 (single isomer, unassigned) [Compound 3-9, (R or S)-1′-(cyclopropanecarbonyl)-1-ethyl-5-(9-ethyl-8-(2-methylpyrimidin-5-yl)-9H-purin-6-yl)spiro[indoline-3,2′-pyrrolidin]-2-one]
3 nM	>10	CCn1c(-c2cnc(C)nc2)nc2c(-c3ccc4c(c3)C3(CCCN3C(=O)C3CC3)C(=O)N4C(C)C)ncnc21 (single isomer, unassigned) [Compound 3-10, (R or S)-1′-(cyclopropanecarbonyl)-5-(9-ethyl-8-(2-methylpyrimidin-5-yl)-9H-purin-6-yl)-1-isopropylspiro[indoline-3,2′-pyrrolidin]-2-one]
45 nM	>10	Cc1ncc(-c2nc3c(-c4ccc5c(c4)C4(CCCN4C(C)C)C(=O)N5)ncnc3n2C)cn1 (single isomer, unassigned) [Compound 3-13, (R or S)-1′-isopropyl-5-(9-methyl-8-(2-methylpyrimidin-5-yl)-9H-purin-6-yl)spiro[indoline-3,2′-pyrrolidin]-2-one]
2 nM	>10	Cc1ncc(-c2nc3c(-c4ccc5c(c4)C4(CCCN4C(C)C)C(=O)N5)ncnc3n2C)cn1 (single isomer, unassigned) [Compound 3-14, (R or S)-1′-isopropyl-5-(9-methyl-8-(2-methylpyrimidin-5-yl)-9H-purin-6-yl)spiro[indoline-3,2′-pyrrolidin]-2-one]
5 nM	>10	CCn1c(C(F)F)nc2c(-c3ccc4c(c3)C3(CCCN3C(=O)C3CC3)C(=O)N4)ncnc21 (single isomer, unassigned) [Compound 3-15, (R or S)-1′-(cyclopropanecarbonyl)-5-(8-(difluoromethyl)-9-ethyl-9H-purin-6-yl)spiro[indoline-3,2′-pyrrolidin]-2-one]
2 nM	>10	Cc1ncc(-c2nc3c(-c4ccc5c(c4)C4(CCCN4C(=O)C4CC4)C(=O)N5CCN4CCOCC4)ncnc3n2C)cn1 (single isomer, unassigned) [Compound 3-16, (R or S)-1′-(cyclopropanecarbonyl)-5-(9-methyl-8-(2-methylpyrimidin-5-yl)-9H-purin-6-yl)-1-(2-morpholinoethyl)spiro[indoline-3,2′-pyrrolidin]-2-one]
2.5 nM	>10	Cc1ncc(-c2nc3c(-c4ccc5c(c4)C4(CCCN4C(=O)C4CC4)C(=O)N5CC(C)(C)O)ncnc3n2C)cn1 (single isomer, unassigned) [Compound 3-17, (R or S)-1′-(cyclopropanecarbonyl)-1-(2-hydroxy-2-methylpropyl)-5-(9-methyl-8-(2-methylpyrimidin-5-yl)-9H-purin-6-yl)spiro[indoline-3,2′-pyrrolidin]-2-one]
1.9 nM	>10	Cc1ncc(-c2nc3c(-c4ccc5c(c4)C4(CCCN4C(=O)C4CC4)C(=O)N5CCO)ncnc3n2C)cn1 (single isomer, unassigned) [Compound 3-18, (R or S)-1′-(cyclopropanecarbonyl)-1-(2-hydroxyethyl)-5-(9-methyl-8-(2-methylpyrimidin-5-yl)-9H-purin-6-yl)spiro[indoline-3,2′-pyrrolidin]-2-one]
0.7 nM	>10	CCn1c(-c2cnc(C)nc2)nc2c(-c3ccc4c(c3)C3(CCCN3S(C)(=O)=O)C(=O)N4)ncnc21 (single isomer, unassigned) [Compound 3-19, (R or S)-5-(9-ethyl-8-(2-methylpyrimidin-5-yl)-9H-purin-6-yl)-1′-(methylsulfonyl)spiro[indoline-3,2′-pyrrolidin]-2-one]
55 nM	>10	CCn1c(-c2cnc(C)nc2)nc2c(-c3ccc4c(c3)C3(CCCN3S(C)(=O)=O)C(=O)N4)ncnc21 (single isomer, unassigned) [Compound 3-20, (R or S)-5-(9-ethyl-8-(2-methylpyrimidin-5-yl)-9H-purin-6-yl)-1′-(methylsulfonyl)spiro[indoline-3,2′-pyrrolidin]-2-one]
69 nM	2	CCn1c(-c2cnc(C)nc2)nc2c(-c3ccc4c(c3)C3(CCCN3S(=O)(=O)C(F)(F)F)C(=O)N4)ncnc21 (single isomer, unassigned) [Compound 3-21, (R or S)-5-(9-ethyl-8-(2-methylpyrimidin-5-yl)-9H-purin-6-yl)-1′-((trifluoromethyl)sulfonyl)spiro[indoline-3,2′-pyrrolidin]-2-one]
